Assay results as given in patent publication US7405228B2, “Antibacterial cyano-(substituted)-methylenepiperidinophenyl oxazolidinones targeting multiple ribonucleoprotein sites” (Wockhardt Limited, priority 2002, dated 2008).
Values after ≈ are worked out from the molar mass of the structure shown. Like-named read-outs stand apart in the source and are kept apart here.

Key:
S. aureus MRSA-32 LNZR = experiment: MIC determination, linezolid resistant S. aureus MRSA-32 LNZR; assay type: cell-based; conditions: Staphylococcus aureus
Method: (§1) Infecting doses of organisms given by intraperitoneal route in 5% hog gastric mucin were 10^3-10^4 CFU (colony forming units)/animal for SPN 6303 and 10^8 CFU/animal for MRSA-32. In case of MRSA-32, Linezolid was administered by oral route, 1 and 4 h post infection, BID (twice a day) for 1 day and for SPN 6303 BID for 2 days. […] MICs of Methicillin Resistant Staphylococcus aureus-32 Linezolid resistant (MRSA-32 LNZR), S. pneumoniae 744 Linezolid resistant (SPN 744 LNZR) and parent Linezolid sensitive strains MRSA-32 and SPN 6303 were determined for Linezolid by NCCLS agar dilution method.
(§2) Cultures were further diluted 1:10 in Mueller Hinton broth. Using Denley's mutipoint inoculator, 10^4 cells were deposited on Mueller Hinton agar (Difco) containing range of 2 fold dilutions of test compounds. […] MIC is defined as minimum drug concentration that inhibits test organisms. For determining MIC of test compounds against Streptococcus pneumoniae, Mueller Hinton agar containing 5% sheep blood was employed.

[1] = system: Enterococcus faecalis 416 strain; experiment: Killing effect study (bactericidal vs bacteriostatic activity); assay type: cell-based; conditions: initial count 10^6 CFU/ml; for Final Count (112 h): E. faecalis 416, 5 mcg/ml compound, Table 4
Method: The initial inoculum was adjusted to 10^6 CFU (colony forming units) per ml. The flasks were kept on shaker in close cabinet at 35° C. Aliquots were drawn at 112 hours and cell count was determined to assess the extent of loss in viability.

[2] = system: S. pneumoniae ATCC 6303 LR; experiment: MIC determination, linezolid-resistant mutant S. pneumoniae ATCC 6303 LR; assay type: cell-based; conditions: Streptococcus pneumoniae, ATCC6303, read-out: Linezolid MIC
SPN 49619 = experiment: MIC determination, linezolid sensitive SPN 49619; assay type: cell-based; conditions: Streptococcus pneumoniae; linezolid sensitive strain, Table 3
S. pneumoniae ATCC 6303 = experiment: MIC determination, linezolid sensitive S. pneumoniae ATCC 6303 (SPN 6303); assay type: cell-based; conditions: Streptococcus pneumoniae, ATCC6303
Method: as §1

E. faecium ATCC 19434 = experiment: MIC determination, parent strain E. faecium ATCC 19434; assay type: cell-based; conditions: Enterococcus faecium, ATCC19434; Linezolid sensitive E. faecium ATCC 19434, NCCLS method
Method: (§3) E. faecium ATCC 19434 strain at a cell density of 10^6/ml was inoculated in Mueller Hinton broth medium containing Linezolid at a concentration of 5 and 7.5 mcg/ml. The stationary culture was incubated at 37° C. and inspected at every 24 hours to assess the formation of turbidity due to the onset of bacterial growth. […] A 50 microliter sample of turbid flask was plated on Mueller Hinton agar medium incorporated with linezolid at 7.5 mcg/ml. The agar plates were incubated for 48 hours at 37° C. for the formation of discrete colonies of linezolid-resistant strain of E. faecium (E. faecium 367 LNZR). MICs of resistant mutant E. faecium 367 LNZR and parent strain E. faecium ATCC 19434 were determined for linezolid by NCCLS method.

SPN 744 LNZR [3] = experiment: MIC determination, linezolid resistant SPN 744 LNZR; assay type: cell-based; conditions: Streptococcus pneumoniae
Method: as §1, §2

S. aureus Smith = experiment: MIC determination, S. aureus Smith; assay type: cell-based; conditions: Staphylococcus aureus, read-out: Linezolid MIC
[4] = system: Enterococcus faecalis 416; experiment: Mutant Prevention Concentration (MPC) determination; assay type: cell-based; set-up: unit not given here; conditions: E. faecalis 416, 10^9 CFU/plate, TSA, 48 hours at 35° C.
Method: Clinical isolate Enterococcus faecalis 416 was spirally plated on Tryptic Soya agar (TSA) plate containing various 2 fold dilutions each of a representative compound of the invention and Linezolid so as to give 10^9 CFU/plate. After incubation at 35° C. for 48 hours, the CFU on each plate was determined. MPC is defined as minimum concentration of drug that prevents mutant colonies on respective antibiotic containing plate.

MRSA-32 LNZR = experiment: ED50 in mouse systemic infection model, MRSA-32 LNZR; assay type: in vivo
E. faecium 367 LNZR = experiment: MIC determination, linezolid resistant E. faecium 367 LNZR; assay type: cell-based; conditions: Enterococcus faecium
Method: as §3, §2

MRSA-32 = experiment: ED50 in mouse systemic infection model, MRSA-32; assay type: in vivo; conditions: MRSA-32 parent strain
Method: as §1

SPN 744 LNZR [5] = experiment: ED50 in mouse systemic infection model, SPN 744 LNZR; assay type: in vivo
MRSA 032 LR = experiment: MIC determination, linezolid-resistant mutant MRSA 032 LR; assay type: cell-based; conditions: Staphylococcus aureus, read-out: Linezolid MIC
SPN 6303 = experiment: ED50 in mouse systemic infection model, SPN 6303; assay type: in vivo; conditions: SPN 6303 parent strain
Method: as §1

[6] = system: Enterococcus faecalis 416 strain; experiment: Propensity to resistance development (resistant colonies per plate); assay type: cell-based; conditions: E. faecalis 416 at 10^8 CFU, compound concentration 5 mcg/ml, 48 hours at 35° C.
Method: Enterococcus faecalis 416 strain at 10^8 CFU density level was spirally plated on Mueller Hinton agar containing 5 mcg/ml each of linezolid and representative compound of the invention. Plates were incubated at 35° C. for 48 hours and number of resistant colonies developed in presence of respective compounds were counted by automated counter.

MRSA 032 = experiment: MIC determination, linezolid sensitive MRSA 032 (MRSA-32); assay type: cell-based; conditions: Staphylococcus aureus
Method: as §1, §2

S. aureus Smith LR = experiment: MIC determination, linezolid-resistant mutant S. aureus Smith LR; assay type: cell-based; conditions: Staphylococcus aureus, read-out: Linezolid MIC
[7] = system: linezolid-resistant S. pneumoniae; conditions: Adis R&D Insight report Document 013296; cited from earlier work
[8] = 24 h, read-out: MIC MRSA 32 LNZR
[9] = read-out: MIC E. faecium 367 LNZR

Compound	MIC (S. aureus MRSA-32 LNZR; [8]) [µg/mL]	Final Count (112 h) [1]	MIC (SPN 49619) [µg/mL]	MIC (SPN 744 LNZR [3]; read-out: MIC SPN744 LNZR) [µg/mL]	MPC [4]	MIC (E. faecium 367 LNZR; [9]) [µg/mL]	No. of colonies/plate [6]	MIC (MRSA 032; read-out: MIC MRSA 32) [µg/mL]	other results
CC(=O)NC[C@H]1CN(c2ccc(N3CCOCC3)c(F)c2)C(=O)O1 [Linezolid, reference compound]	> 25	10^8 CFU/ml	0.8 (≈ 2.37 µM)	25 (≈ 74.1 µM)	12.5	> 25	1.2 × 10^2	1.56 (≈ 4.62 µM)	MIC (S. aureus MRSA-32 LNZR): 50 µg/mL (≈ 148 µM); final count after killing effect study ([1]; E. faecalis 416, 5 mcg/ml): 10^9 CFU/ml; MIC [2]: 25 µg/mL (≈ 74.1 µM); MIC (S. pneumoniae ATCC 6303; S. pneumoniae ATCC 6303, Table 1, read-out: Linezolid MIC): 0.8 µg/mL (≈ 2.37 µM); MIC (S. pneumoniae ATCC 6303; parent Linezolid sensitive SPN 6303, NCCLS agar dilution method, read-out: MIC): 0.8 µg/mL (≈ 2.37 µM); MIC (E. faecium ATCC 19434): 1.56 µg/mL (≈ 4.62 µM); MIC (SPN 744 LNZR [3]): 25 µg/mL (≈ 74.1 µM); MIC (S. aureus Smith): 1.56 µg/mL (≈ 4.62 µM); ED50 (MRSA-32 LNZR): 100 mg/kg; MIC (E. faecium 367 LNZR): 25 µg/mL (≈ 74.1 µM); ED50 (MRSA-32): 5 mg/kg; ED50 (SPN 744 LNZR [5]): > 200 mg/kg; MIC (MRSA 032 LR): 25 µg/mL (≈ 74.1 µM); ED50 (SPN 6303): 75 mg/kg; MIC (MRSA 032): 1.56 µg/mL (≈ 4.62 µM); MIC (MRSA 032; read-out: Linezolid MIC): 1.56 µg/mL (≈ 4.62 µM); MIC (S. aureus Smith LR): 50 µg/mL (≈ 148 µM)
O=C([C@@H](O)CO)N1CC=C(c2c(F)cc(N3C[C@H](COc4ccon4)OC3=O)cc2F)CC1 [AZD 2563]	–	–	–	–	–	–	–	–	activity against linezolid-resistant S. pneumoniae [7]: ineffective
CC(=O)NC[C@H]1CN(c2ccc(N3CCC(=CC#N)CC3)cc2)C(=O)O1 [Example 3, (S)-N-{3-[4-(4-cyanomethylidene-piperidin-1-yl)-phenyl]-2-oxo-oxazolidin-5-ylmethyl}-acetamide]	25 (≈ 70.5 µM)	10^6 CFU/ml	0.8 (≈ 2.26 µM)	12.5 (≈ 35.3 µM)	12.5	25 (≈ 70.5 µM)	0	1.56 (≈ 4.4 µM)	–
COC(=S)NC[C@H]1CN(c2ccc(N3CCC(=CC#N)CC3)c(F)c2)C(=O)O1 [Example 46, (S)-N-{3-[4-(4-cyanomethylidene-piperidin-1-yl)-3-fluorophenyl]-2-oxo-oxazolidin-5-ylmethyl}-methylthiocarbamate]	6.25 (≈ 15.5 µM)	<10^2 CFU/ml	0.2 (≈ 0.494 µM)	6.25 (≈ 15.5 µM)	1.56	1.56 (≈ 3.86 µM)	0	0.2 (≈ 0.494 µM)	–
